# Assay results as given in PMC7169394, “Binding Constants of Substituted Benzoic Acids with Bovine Serum Albumin” (Pharmaceuticals, 2020).
# Read-outs that look alike come from different tables or passages of the source.
# Assays:
# [1] = molecular target: bovine serum albumin (BSA) (Bos taurus, UniProt P02769); assay: biochemical; format: binding
# BSA [2] = conditions: SF, 298 K; cited from earlier work
# [3] = tested on: human serum albumin (HSA); conditions: SF, 298 K; cited from earlier work
# BSA [4] = tested on: BSA; set-up: method as in PMID 5677620; conditions: SP, 310 K; cited from earlier work
# BSA [5] = conditions: UC, cited from earlier work
# BSA [6] = conditions: CE, 298 K; cited from earlier work
# BSA [7] = tested on: BSA; set-up: method as in PMID 27098963; conditions: ED, 310 K; cited from earlier work
# [8] = tested on: human serum albumin (HSA); set-up: method as in PMID 3664856; conditions: UC, 288 K; cited from earlier work
# [9] = 298 K, phosphate buffer pH 7.4, 0.05 M, BSA about 1 µM, 1:1 model, standard state 1 M, […], read-out: K∙10^−4 (binding constant with BSA, final corrected value) (converted)
# [10] = 298 K, phosphate buffer pH 7.4, 0.05 M, BSA about 1 µM, 1:1 model, standard state 1 M, value is K multiplied by 10^−4, read-out: K∙10^−4 (binding constant with BSA, final corrected value) (converted)
# bovine serum albumin (BSA), sequence (P02769 25-607): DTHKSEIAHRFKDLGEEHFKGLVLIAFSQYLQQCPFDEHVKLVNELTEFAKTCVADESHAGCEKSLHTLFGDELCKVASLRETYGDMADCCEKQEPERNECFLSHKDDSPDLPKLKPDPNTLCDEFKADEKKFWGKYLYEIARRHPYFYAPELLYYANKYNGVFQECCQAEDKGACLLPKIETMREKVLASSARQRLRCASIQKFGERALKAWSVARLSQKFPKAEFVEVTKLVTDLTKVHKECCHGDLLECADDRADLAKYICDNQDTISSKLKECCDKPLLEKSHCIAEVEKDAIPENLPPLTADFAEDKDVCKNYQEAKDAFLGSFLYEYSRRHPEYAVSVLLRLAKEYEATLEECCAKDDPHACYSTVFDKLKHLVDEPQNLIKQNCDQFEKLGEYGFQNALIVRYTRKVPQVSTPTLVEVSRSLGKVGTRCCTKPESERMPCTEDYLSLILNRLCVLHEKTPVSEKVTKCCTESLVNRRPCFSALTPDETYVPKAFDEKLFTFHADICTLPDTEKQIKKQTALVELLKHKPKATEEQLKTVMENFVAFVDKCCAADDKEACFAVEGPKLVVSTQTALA
smiles,measurement,setting,value
"O=C(O)c1ccc(O)cc1O [2,4-dihydroxybenzoic acid]",Kd,[1],32.3 µM
same,K·10^−4 BSA,BSA [2],<0.1 (SF) [11]
same,K·10^−4 HSA,[3],0.16 (SF) [10]
Nc1ccccc1C(=O)O [2-aminobenzoic acid],Kd,[1]; [9],43.5 µM
same,K·10^−4 BSA,BSA [4],"0.63 (SP, 310 K) [9]"
O=C(O)c1ccccc1Br [2-bromobenzoic acid],Kd,[1],43.5 µM
same,K·10^−4 BSA,BSA [5]; 310 K,"3.98 (UC, 310 K) [9]"
N#Cc1ccccc1C(=O)O [2-cyanobenzoic acid],Kd,[1],38.5 µM
O=C(O)c1ccccc1F [2-fluorobenzoic acid],Kd,[1]; [9],30.3 µM
O=C(O)c1ccccc1O [2-hydroxybenzoic acid],K·10^−4 BSA,BSA [2],7.38
same,K·10^−4 BSA,BSA [4],10.0
same,K·10^−4 HSA,[3],190
same,K·10^−4 BSA,BSA [6],3.92
O=C(O)c1ccccc1I [2-iodobenzoic acid],Kd,[1]; [10],30.3 µM
O=C(O)c1ccccc1[N+](=O)[O-] [2-nitrobenzoic acid],Kd,[1],47.6 µM
Nc1cccc(C(=O)O)c1 [3-aminobenzoic acid],Kd,[1],71.4 µM
same,K·10^−4 BSA,BSA [4],"0.32 (SP, 310 K) [9]"
O=C(O)c1cccc(Br)c1 [3-bromobenzoic acid],Kd,[1]; [10],28.6 µM
same,K·10^−4 BSA,BSA [5]; 310 K,"63.1 (UC, 310 K) [9]"
O=C(O)c1cccc(Cl)c1 [3-chlorobenzoic acid],Kd,[1],17.2 µM
same,K·10^−4 BSA,BSA [7],"11.22 (ED, 310 K) [24]"
N#Cc1cccc(C(=O)O)c1 [3-cyanobenzoic acid],Kd,[1],25.6 µM
O=C(O)c1cccc(O)c1 [3-hydroxybenzoic acid],Kd,[1],52.6 µM
same,K·10^−4 BSA,BSA [2],0.85
same,K·10^−4 BSA,BSA [4],5.01
same,K·10^−4 HSA,[3],0.34 (SF) [10]
O=C(O)c1cccc(I)c1 [3-iodobenzoic acid],Kd,[1]; [10],19.6 µM
O=C(O)c1cccc([N+](=O)[O-])c1 [3-nitrobenzoic acid],Kd,[1]; [9],12.8 µM
O=C(O)c1ccc(Br)cc1 [4-bromobenzoic acid],Kd,[1]; [10],18.5 µM
same,K·10^−4 BSA,BSA [5]; 310 K,20.0
same,K·10^−4 BSA,BSA [7],20.42
N#Cc1ccc(C(=O)O)cc1 [4-cyanobenzoic acid],K·10^−4 BSA,BSA [5]; 288 K,"1.66 (UC, 288 K) [8]"
O=C(O)c1ccc(O)cc1 [4-hydroxybenzoic acid],Kd,[1],100 ± 10 µM
same,K·10^−4 BSA,BSA [2],< 0.1
same,K·10^−4 BSA,BSA [4],0.79
same,K·10^−4 BSA,BSA [5]; 288 K,0.68
same,K·10^−4 HSA,[3],< 0.1
same,K·10^−4 HSA,[8],0.45
O=C(O)c1ccc(I)cc1 [4-iodobenzoic acid],Kd,[1]; [10],24.4 µM
Cc1ccc(C(=O)O)cc1 [4-methylbenzoic acid],Kd,[1],71.4 µM
same,K·10^−4 BSA,BSA [2],< 0.1
same,K·10^−4 BSA,BSA [4],7.94
same,K·10^−4 BSA,BSA [5]; 288 K,6.76
same,K·10^−4 BSA,BSA [7],3.16
same,K·10^−4 HSA,[3],0.35
same,K·10^−4 HSA,[8],3.63
O=C(O)c1ccc([N+](=O)[O-])cc1 [4-nitrobenzoic acid],Kd,[1],12.3 µM
same,K·10^−4 BSA,BSA [5]; 288 K,6.03
same,K·10^−4 BSA,BSA [7],3.09
same,K·10^−4 HSA,[8],"8.13 (UC, 288 K) [8]"
O=C(O)c1ccccc1 [benzoic acid],Kd,[1],52.6 µM
same,K·10^−4 BSA,BSA [4],5.01
same,K·10^−4 BSA,BSA [5]; 288 K,2.24
same,K·10^−4 BSA,BSA [7],1.15
same,K·10^−4 HSA,[8],"2.29 (UC, 288 K) [8]"
